Data on 3 compounds can be found in patent US3996229A, “1-[10,11-Dihydro-dibenzo[b,f]-thiepin-10-yl]-4-(alkynylalkyl)-piperazines” (Hoffmann-La Roche Inc., priority 1974, dated 1976).

The structures appear in SMILES notation.

For orientation: LD50 means the dose expected to kill half of the subjects tested. As a reminder, the ED50 is the midpoint of the dose-response relation. A low value points to greater potency.

Series [1] has as its system rats. The series can be described thus: Catalepsy Test. The class given is in vivo, rat. Particulars: rats, intraperitoneally. As to the method:
(§1) Representative dibenzo[b,f]thiepin derivatives of this invention were administered intraperitoneally to rats. The animals are considered to be cataleptic when the homolateral extremities remain in a crossed position for at least 10 seconds. The number of cataleptic animals is noted every 30 minutes for 6 hours.

The test system of another series is mouse. The series is described as follows: Acute toxicity in the mouse. The class given is in vivo. The settings on record: acute toxicity, 24 hours. The method, then:
(§2) The values relate to a duration of activity over a period of 24 hours: […]

Series [2] has as its system rats. The series can be described thus: "Pole Climbing" Test (neuroleptic properties; blocking of conditioned and unconditioned reaction). The format is in vivo, rat. The settings on record: for Quotient ED10 (blocking of the unconditioned reaction)/ED50 (blocking of the conditioned reaction) / ED50: rats; for Quotient ED10 (blocking of the unconditioned reaction)/ED50 (blocking of the conditioned reaction): p.o., higher quotient = greater selectivity of the neuroleptic action; for ED50: Rattus norvegicus, po, pole climbing, conditioned impulse (acoustic signal). As to the method: The neuroleptic properties of the foregoing derivatives were determined numerically on the basis of the following test, i.e., the "pole climbing" test.
This test provides information about the behavior reaction of rats. Rats are trained to avoid, by climbing up a vertical pole in the test chamber, an electrical impulse--unconditioned impulse--released via the wire-latticed floor some seconds after an acoustic signal--conditioned impulse--.
The blocking of the conditioned reaction is designated by the parameter ED50 (mg/kg p.o.) and the blocking of the unconditioned reaction is designated by the parameter ED10 (mg/kg p.o.).
The parameter ED50 --blocking of the conditioned reaction--provides a measure of the neuroleptic activity strength of the derivative under investigation since, with falling value, the neuroleptic activity strength increases.

The nature of another series: Catalepsy Test. The class given is in vivo, rat. The settings on record: rat, in vivo, ip. As to the method:
as §1

A short description of series [3]: Acute toxicity in the mouse. The class given is in vivo. Particulars: in vivo, po, period of 24 hours. The method, then: as §2
[4] abbreviates: pole climbing test, chlorpromazine compared with Derivative A and Derivative B.

Take `CN(C)CCCN1c2ccccc2Sc2ccc(Cl)cc21` [Chlorpromazine, reference compound]: the “cataleptic side-effects (in words)” value in the series with rats [1] was “considerably greater cataleptic activity”. The “toxicity (in words)” value in the series on mouse is listed as “clearly inferior”. Also, in the series on rats [2] (setting [4]), the “neuroleptic activity (in words)” value is “somewhat stronger activity” and the “quality (selectivity) of the neuroleptic activity (in words)” value is listed as “clearly inferior”. The “Quotient ED10 (blocking of the unconditioned reaction)/ED50 (blocking of the conditioned reaction)” value with rats [2] is listed as 2.5.
As for `C#CCN1CCN(C2Cc3ccc(OC)cc3Sc3ccc(SC)cc32)CC1.Cl.Cl` (stereo not drawn) [Derivative A, 1-[10,11-Dihydro-3-methoxy-8-methylthio-dibenzo[b,f]thiepin-10-yl]-4-(2-propynyl)-piperazine dihydrochloride], the “cataleptic side-effects (in words)” value in the series on rats [1] is on record as “only very slight or no cataleptic side-effects”. This compound also showed a TD50 at 6 h in “Catalepsy Test” of 88 mg/kg. The 50% lethal dose (LD50) at 24 h in series [3] was 900 mg/kg. Further, in the series with rats [2], the 50% effect level (ED50) was put at a dose of 17 mg/kg and the “Quotient ED10 (blocking of the unconditioned reaction)/ED50 (blocking of the conditioned reaction)” value came out at 9.
The like results for `C#CCN1CCN(C2Cc3ccc(OC)cc3Sc3ccc(Cl)cc32)CC1.CS(=O)(=O)O.CS(=O)(=O)O` (stereo not drawn) [Derivative B, 1-[8-Chloro-10,11-dihydro-3-methoxy-dibenzo[b,f]thiepin-10-yl]-4-(2-propynyl)-piperazine dimethanesulfonate] were, in that order, “only very slight or no cataleptic side-effects”, over 100 mg/kg, 750 mg/kg, 25 mg/kg and 4.
